What was measured:
Rattus norvegicus [1] = experiment: Total electrolytic excretion of chlorine in urine of rats after peroral administration of 84.5 uM/Kg of drug; assay type: ADME, organism-based; settings: in vivo, po
Rattus norvegicus [2] = experiment: Total electrolytic excretion of chlorine in urine of rats after peroral administration of 28.2 uM/Kg of drug; assay type: ADME, organism-based; settings: in vivo, po
Rattus norvegicus [3] = experiment: Total electrolytic excretion of chlorine in urine of rats after peroral administration of 282 uM/Kg of drug; assay type: ADME, organism-based; settings: in vivo, po
Rattus norvegicus [4] = experiment: Total electrolytic excretion of potassium in urine of rats after peroral administration of 84.5 uM/Kg of drug; assay type: ADME, organism-based; settings: in vivo, po
Rattus norvegicus [5] = experiment: Total electrolytic excretion of potassium in urine of rats after peroral administration of 28.2 uM/Kg of drug; assay type: ADME, organism-based; settings: in vivo, po
Rattus norvegicus [6] = experiment: Total electrolytic excretion of potassium in urine of rats after peroral administration of 282 uM/Kg of drug; assay type: ADME, organism-based; settings: in vivo, po
Rattus norvegicus [7] = experiment: Total electrolytic excretion of sodium in urine of rats after peroral administration of 84.5 uM/Kg of drug; assay type: ADME, organism-based; settings: in vivo, po
Rattus norvegicus [8] = experiment: Tested for the diuretic activity by measuring the urinary volume after peroral administering 84.5 uM/Kg of drug in rats; assay type: ADME, organism-based, Urine; settings: in vivo, po
Rattus norvegicus [9] = experiment: Total electrolytic excretion of sodium in urine of rats after peroral administration of 28.2 uM/Kg of drug; assay type: ADME, organism-based; settings: in vivo, po
Rattus norvegicus [10] = experiment: Total electrolytic excretion of sodium in urine of rats after peroral administration of 282 uM/Kg of drug; assay type: ADME, organism-based; settings: in vivo, po
Rattus norvegicus [11] = experiment: Tested for the diuretic activity by measuring the urinary volume after peroral administering 28.2 uM/Kg of drug in rats; assay type: ADME, organism-based, Urine; settings: in vivo, po
Rattus norvegicus [12] = experiment: Tested for the diuretic activity by measuring the urinary volume after peroral administering 282 uM/Kg of drug in rats; assay type: ADME, organism-based, Urine; settings: in vivo, po
Rattus norvegicus [13] = experiment: Ratio of Total electrolytic excretion of sodium and potassium in urine of rats after peroral administration of 28.2 uM/Kg of drug; assay type: ADME, organism-based; settings: in vivo, po
Rattus norvegicus [14] = experiment: Ratio of Total electrolytic excretion of sodium and potassium in urine of rats after peroral administration of 282 uM/Kg of drug; assay type: ADME, organism-based; settings: in vivo, po
Rattus norvegicus [15] = experiment: Ratio of Total electrolytic excretion of sodium and potassium in urine of rats after peroral administration of 84.5 uM/Kg of drug; assay type: ADME, organism-based; settings: in vivo, po
Rattus norvegicus [16] = experiment: Total electrolytic excretion of chlorine in urine of rats after peroral administration of 97.1 uM/Kg of drug; assay type: ADME, organism-based; settings: in vivo, po
Rattus norvegicus [17] = experiment: Total electrolytic excretion of chlorine in urine of rats after peroral administration of 324 uM/Kg of drug; assay type: ADME, organism-based; settings: in vivo, po
Rattus norvegicus [18] = experiment: Total electrolytic excretion of potassium in urine of rats after peroral administration of 97.1 uM/Kg of drug; assay type: ADME, organism-based; settings: in vivo, po
Rattus norvegicus [19] = experiment: Total electrolytic excretion of potassium in urine of rats after peroral administration of 32.4 uM/Kg of drug; assay type: ADME, organism-based; settings: in vivo, po
Rattus norvegicus [20] = experiment: Total electrolytic excretion of potassium in urine of rats after peroral administration of 324 uM/Kg of drug; assay type: ADME, organism-based; settings: in vivo, po
Rattus norvegicus [21] = experiment: Total electrolytic excretion of sodium in urine of rats after peroral administration of 97.1 uM/Kg of drug; assay type: ADME, organism-based; settings: in vivo, po
Rattus norvegicus [22] = experiment: Tested for the diuretic activity by measuring the urinary volume after peroral administering 97.1 uM/Kg of drug in rats; assay type: ADME, organism-based, Urine; settings: in vivo, po
Rattus norvegicus [23] = experiment: Tested for the diuretic activity by measuring the urinary volume after peroral administering 32.4 uM/Kg of drug in rats; assay type: ADME, organism-based, Urine; settings: in vivo, po
Rattus norvegicus [24] = experiment: Tested for the diuretic activity by measuring the urinary volume after peroral administering 324 uM/Kg of drug in rats; assay type: ADME, organism-based, Urine; settings: in vivo, po
Rattus norvegicus [25] = experiment: Total electrolytic excretion of sodium in urine of rats after peroral administration of 32.4 uM/Kg of drug; assay type: ADME, organism-based; settings: in vivo, po
Rattus norvegicus [26] = experiment: Total electrolytic excretion of sodium in urine of rats after peroral administration of 324 uM/Kg of drug; assay type: ADME, organism-based; settings: in vivo, po
Rattus norvegicus [27] = experiment: Ratio of Total electrolytic excretion of sodium and potassium in urine of rats after peroral administration of 32.4 uM/Kg of drug; assay type: ADME, organism-based; settings: in vivo, po
Rattus norvegicus [28] = experiment: Ratio of Total electrolytic excretion of sodium and potassium in urine of rats after peroral administration of 324 uM/Kg of drug; assay type: ADME, organism-based; settings: in vivo, po
Rattus norvegicus [29] = experiment: Ratio of Total electrolytic excretion of sodium and potassium in urine of rats after peroral administration of 97.1 uM/Kg of drug; assay type: ADME, organism-based; settings: in vivo, po
Rattus norvegicus [30] = experiment: Ratio of Total electrolytic excretion of sodium and potassium in urine of rats after intravenous administration of 23.5 uM/Kg of drug; assay type: ADME, organism-based; settings: in vivo
Rattus norvegicus [31] = experiment: Ratio of Total electrolytic excretion of sodium and potassium in urine of rats after intravenous administration of 70.6 uM/Kg of drug; assay type: ADME, organism-based; settings: in vivo
Rattus norvegicus [32] = experiment: Total electrolytic excretion of chlorine in urine of rats after peroral administration of 32.4 uM/Kg of drug; assay type: ADME, organism-based; settings: in vivo, po

## C1CCC(/N=C(/NC2CCCCC2)N2CCCCC2)CC1
Rattus norvegicus [1]
  Excretion Cl-: 1.46 m equiv
Rattus norvegicus [2]
  Excretion Cl-: 1.18 m equiv
Rattus norvegicus [3]
  Excretion Cl-: 0.77 m equiv
Rattus norvegicus [4]
  Excretion K+: 0.35 m equiv
Rattus norvegicus [5]
  Excretion K+: 0.29 m equiv
Rattus norvegicus [6]
  Excretion K+: 0.21 m equiv
Rattus norvegicus [7]
  Excretion Na+: 1.33 m equiv
Rattus norvegicus [8]
  V: 7.4 mL
Rattus norvegicus [9]
  Excretion Na+: 1.13 m equiv
Rattus norvegicus [10]
  Excretion Na+: 0.76 m equiv
Rattus norvegicus [11]
  V: 6.5 mL
Rattus norvegicus [12]
  V: 3.7 mL
Rattus norvegicus [13]
  Ratio: 4
Rattus norvegicus [14]
  Ratio: 3.7
Rattus norvegicus [15]
  Ratio: 3.8

## c1ccc(C/N=C(/NCc2ccccc2)N2CCOCC2)cc1
Rattus norvegicus [16]
  Excretion Cl-: 1.14 m equiv
Rattus norvegicus [17]
  Excretion Cl-: 1.94 m equiv
Rattus norvegicus [18]
  Excretion K+: 0.31 m equiv
Rattus norvegicus [19]
  Excretion K+: 0.33 m equiv
Rattus norvegicus [20]
  Excretion K+: 0.42 m equiv
Rattus norvegicus [21]
  Excretion Na+: 1.13 m equiv
Rattus norvegicus [22]
  V: 7.3 mL
Rattus norvegicus [23]
  V: 5.4 mL
Rattus norvegicus [24]
  V: 13.8 mL
Rattus norvegicus [25]
  Excretion Na+: 0.77 m equiv
Rattus norvegicus [26]
  Excretion Na+: 2.25 m equiv
Rattus norvegicus [27]
  Ratio: 2.4
Rattus norvegicus [28]
  Ratio: 5.4
Rattus norvegicus [29]
  Ratio: 3.6
Rattus norvegicus [30]
  Ratio: 16.4
Rattus norvegicus [31]
  Ratio: 29.5
Rattus norvegicus [32]
  Excretion Cl-: 0.86 m equiv
